{
  "source": "paper PMC5355835",
  "about": "(Chemical Science, 2016)",
  "key": {"[1]": {"assay": "Stability assay in human serum", "format": "in vitro ADME", "settings": "male, 37 °C"}, "[2]": {"assay": "Temperature and pH stability assay in phosphate buffers", "format": "physicochemical", "settings": "50 mM phosphate buffer; for half-life at 0.1 mg/mL: phosphate buffer"}, "[3]": {"assay": "Stability assay under reductive conditions", "format": "physicochemical", "settings": "PBS buffer with 1.0 mM L-glutathione, pH 7"}},
  "data": [
    {"smiles": "CC[C@H](C)[C@@H]1NC(=O)[C@H](Cc2ccc(O)cc2)NC(=O)[C@@H](N)CSSC[C@@H](C(=O)N2CCC[C@H]2C(=O)N[C@@H](CC(C)C)C(=O)NCC(N)=O)NC(=O)[C@H](CC(N)=O)NC(=O)[C@H](CCC(N)=O)NC1=O", "note": "[OXT, oxytocin]", "values": [
      {"measurement": "half-life at 0.45 mM", "setting": "[1]", "result": 28.8, "unit": "h"},
      {"measurement": "half-life", "setting": "[2]; pH 2.0, 40 °C", "result": "14 ± 0.9", "unit": "days"},
      {"measurement": "half-life", "setting": "[2]; pH 4.5, 40 °C", "result": "121 ± 6.2", "unit": "days"},
      {"measurement": "half-life at 0.1 mg/mL", "setting": "[2]; pH 2, half-life, pH 2.0, 55 °C", "result": 76.8, "unit": "h"},
      {"measurement": "half-life at 0.1 mg/mL", "setting": "[2]; pH 4.5, half-life, pH 4.5, 55 °C", "result": 432, "unit": "h"},
      {"measurement": "half-life at 0.1 mg/mL", "setting": "[2]; pH 7, half-life, pH 7.0, 40 °C", "result": 173, "unit": "h"},
      {"measurement": "half-life at 0.1 mg/mL", "setting": "[2]; pH 7, half-life, pH 7.0, 55 °C", "result": 48, "unit": "h"},
      {"measurement": "half-life at 0.1 mg/mL", "setting": "[2]; pH 9, half-life, pH 9.0, 40 °C", "result": 93.6, "unit": "h"},
      {"measurement": "half-life at 0.1 mg/mL", "setting": "[2]; pH 9, half-life, pH 9.0, 55 °C", "result": 21.6, "unit": "h"},
      {"measurement": "half-life at 9.9 µM", "setting": "[3]", "result": 8, "unit": "h"}
    ]}
  ]
}
